Reference: patent publication US12540120B2, “Herbicidal compounds” (SYNGENTA CROP PROTECTION AG, priority 2019, dated 2026)

What was measured:
Assay type in all cases: in vivo
[1] = test system: Amaranthus retoflexus (AMARE); test: B2 Post-Emergence Efficacy—Test 2; conditions: post-emergence application, 250 g/ha, evaluated after 13 days (Test 2)
Experimental: (§1) B2 Post-Emergence Efficacy—Test 2 Seeds of a variety of test species are sown in standard soil in pots:—Solanum nigrum (SOLNI), Amaranthus retoflexus (AMARE), Setaria faberi (SETFA), Echinochloa crus-galli (ECHCG), Ipomoea hederacea (IPOHE), Lolium perenne (LOLPE). After 8 days cultivation (post-emergence) under controlled conditions in a glasshouse (at 24/16° C., day/night; 14 hours light; 65% humidity), the plants are sprayed with an aqueous spray solution derived from the formulation of the technical active ingredient in acetone/water (50:50) solution containing 0.5% Tween 20 (polyoxyethylene sorbitan monolaurate, CAS RN 9005-64-5). Compounds are applied at 250 g/ha. The test plants are then grown in a glasshouse under controlled conditions in a glasshouse (at 24/16° C., day/night; 14 hours light; 65% humidity) and watered twice daily. After 13 days, the test is evaluated for the percentage damage caused to the plant. The biological activities are assessed on a five point scale (5=80-100%; 4=60-79%; 3=40-59%; 2=20-39%; 1=0-19%). A blank value in the table is indicative that the compound was not tested on that species.

[2] = test system: Echinochloa crus-galli (ECHCG); test: B2 Post-Emergence Efficacy—Test 2; conditions: post-emergence application, 250 g/ha, evaluated after 13 days (Test 2)
Experimental: as §1

[3] = test system: Ipomoea hederacea (IPOHE); test: B2 Post-Emergence Efficacy—Test 2; conditions: post-emergence application, 250 g/ha, evaluated after 13 days (Test 2)
Experimental: as §1

[4] = test system: Lolium perenne (LOLPE); test: B2 Post-Emergence Efficacy—Test 2; conditions: post-emergence application, 250 g/ha, evaluated after 13 days (Test 2)
Experimental: as §1

[5] = test system: Setaria faberi (SETFA); test: B2 Post-Emergence Efficacy—Test 2; conditions: post-emergence application, 250 g/ha, evaluated after 13 days (Test 2)
Experimental: as §1

[6] = test system: Solanum nigrum (SOLNI); test: B2 Post-Emergence Efficacy—Test 2; conditions: post-emergence application, 250 g/ha, evaluated after 13 days (Test 2)
Experimental: as §1

[7] = test system: Amaranthus retoflexus (AMARE); test: B5 Pre-Emergence Efficacy—Test 2; conditions: 250 g/ha, evaluated after 13 days
Experimental: (§2) B5 Pre-Emergence Efficacy—Test 2 Seeds of a variety of test species were sown in standard soil in pots: Solanum nigrum (SOLNI), Amaranthus retoflexus (AMARE), Setaria faberi (SETFA), Echinochloa crus-galli (ECHCG), Ipomoea hederacea (IPOHE), Lolium perenne (LOLPE). After cultivation for one day (pre-emergence) under controlled conditions in a glasshouse (at 24/16° C., day/night; 14 hours light; 65% humidity), the plants were sprayed with an aqueous spray solution derived from the formulation of the technical active ingredient in acetone/water (50:50) solution containing 0.5% Tween 20 (polyoxyethelyene sorbitan monolaurate, CAS RN 9005-64-5). Compounds are applied at 250 g/ha. The test plants were then grown in a glasshouse under controlled conditions (at 24/16° C., day/night; 14 hours light; 65% humidity) and watered twice daily. After 13 days, the test is evaluated for the percentage damage caused to the plant. The biological activities are assessed on a five point scale (5=80-100%; 4=60-79%; 3=40-59%; 2=20-39%; 1=0-19%). A blank value in the table is indicative that the compound was not tested on that species.

[8] = test system: Solanum nigrum (SOLNI); test: B5 Pre-Emergence Efficacy—Test 2; conditions: 250 g/ha, evaluated after 13 days
Experimental: as §2

[9] = test system: Echinochloa crus-galli (ECHCG); test: B5 Pre-Emergence Efficacy—Test 2; set-up: key: 5-point scale: 5=80-100%, 4=60-79%, 3=40-59%, 2=20-39%, 1=0-19% damage; conditions: 250 g/ha, evaluated after 13 days
Experimental: as §2

[10] = test system: Ipomoea hederacea (IPOHE); test: B5 Pre-Emergence Efficacy—Test 2; set-up: key: 5-point scale: 5=80-100%, 4=60-79%, 3=40-59%, 2=20-39%, 1=0-19% damage; conditions: 250 g/ha, evaluated after 13 days
Experimental: as §2

[11] = test system: Lolium perenne (LOLPE); test: B5 Pre-Emergence Efficacy—Test 2; set-up: key: 5-point scale: 5=80-100%, 4=60-79%, 3=40-59%, 2=20-39%, 1=0-19% damage; conditions: 250 g/ha, evaluated after 13 days
Experimental: as §2

[12] = test system: Setaria faberi (SETFA); test: B5 Pre-Emergence Efficacy—Test 2; set-up: key: 5-point scale: 5=80-100%, 4=60-79%, 3=40-59%, 2=20-39%, 1=0-19% damage; conditions: 250 g/ha, evaluated after 13 days
Experimental: as §2

## Cc1nn(C)c(=O)c(-c2c(F)ccc(Cl)c2CCc2cccc(C#N)c2)c1O [Compound A-1.030]
[1]
  percentage damage caused to the plant, five point scale, AMARE: 4 (4=60-79%)
[2]
  percentage damage caused to the plant, five point scale, ECHCG: 4 (4=60-79%)
[3]
  percentage damage caused to the plant, five point scale, IPOHE: 5 (5=80-100%)
[4]
  percentage damage caused to the plant, five point scale, LOLPE: 5 (5=80-100%)
[5]
  percentage damage caused to the plant, five point scale, SETFA: 4 (4=60-79%)
[6]
  percentage damage caused to the plant, five point scale, SOLNI: 5 (5=80-100%)
[7]
  Control of weed species after pre-emergence application, AMARE (percentage damage, five point scale): 5 (5=80-100%)
[8]
  Control of weed species after pre-emergence application, SOLNI (percentage damage, five point scale): 5 (5=80-100%)
[9]
  Control of weed species after pre-emergence application, ECHCG (percentage damage, five point scale): 5 (5=80-100%)
[10]
  Control of weed species after pre-emergence application, IPOHE (percentage damage, five point scale): 0
[11]
  Control of weed species after pre-emergence application, LOLPE (percentage damage, five point scale): 4 (4=60-79%)
[12]
  Control of weed species after pre-emergence application, SETFA (percentage damage, five point scale): 5 (5=80-100%)

## Cc1cc(CCc2c(Cl)ccc(F)c2-c2c(O)c(C)nn(C)c2=O)ccc1N [Compound A-1.031]
[1]
  percentage damage caused to the plant, five point scale, AMARE: 5 (5=80-100%)
[2]
  percentage damage caused to the plant, five point scale, ECHCG: 4 (4=60-79%)
[3]
  percentage damage caused to the plant, five point scale, IPOHE: 4 (4=60-79%)
[4]
  percentage damage caused to the plant, five point scale, LOLPE: 4 (4=60-79%)
[5]
  percentage damage caused to the plant, five point scale, SETFA: 4 (4=60-79%)
[6]
  percentage damage caused to the plant, five point scale, SOLNI: 5 (5=80-100%)
[7]
  Control of weed species after pre-emergence application, AMARE (percentage damage, five point scale): 3 (3=40-59%)
[8]
  Control of weed species after pre-emergence application, SOLNI (percentage damage, five point scale): 2 (2=20-39%)
[9]
  Control of weed species after pre-emergence application, ECHCG (percentage damage, five point scale): 2 (2=20-39%)
[10]
  Control of weed species after pre-emergence application, IPOHE (percentage damage, five point scale): 1 (1=0-19%)
[11]
  Control of weed species after pre-emergence application, LOLPE (percentage damage, five point scale): 1 (1=0-19%)
[12]
  Control of weed species after pre-emergence application, SETFA (percentage damage, five point scale): 1 (1=0-19%)

## Cc1nn(C)c(=O)c(-c2c(F)ccc(Cl)c2CCc2ccc(S(C)(=O)=O)cc2)c1O [Compound A-1.032]
[1]
  percentage damage caused to the plant, five point scale, AMARE: 5 (5=80-100%)
[2]
  percentage damage caused to the plant, five point scale, ECHCG: 5 (5=80-100%)
[3]
  percentage damage caused to the plant, five point scale, IPOHE: 5 (5=80-100%)
[4]
  percentage damage caused to the plant, five point scale, LOLPE: 5 (5=80-100%)
[5]
  percentage damage caused to the plant, five point scale, SETFA: 5 (5=80-100%)
[6]
  percentage damage caused to the plant, five point scale, SOLNI: 5 (5=80-100%)
[7]
  Control of weed species after pre-emergence application, AMARE (percentage damage, five point scale): 5 (5=80-100%)
[8]
  Control of weed species after pre-emergence application, SOLNI (percentage damage, five point scale): 5 (5=80-100%)
[9]
  Control of weed species after pre-emergence application, ECHCG (percentage damage, five point scale): 5 (5=80-100%)
[10]
  Control of weed species after pre-emergence application, IPOHE (percentage damage, five point scale): 2 (2=20-39%)
[11]
  Control of weed species after pre-emergence application, LOLPE (percentage damage, five point scale): 5 (5=80-100%)
[12]
  Control of weed species after pre-emergence application, SETFA (percentage damage, five point scale): 5 (5=80-100%)

## Cc1nn(C)c(=O)c(-c2c(F)ccc(Cl)c2CCc2ccc(N(C)C)cc2)c1O [Compound A-1.033]
[1]
  percentage damage caused to the plant, five point scale, AMARE: 5 (5=80-100%)
[2]
  percentage damage caused to the plant, five point scale, ECHCG: 4 (4=60-79%)
[3]
  percentage damage caused to the plant, five point scale, IPOHE: 5 (5=80-100%)
[4]
  percentage damage caused to the plant, five point scale, LOLPE: 5 (5=80-100%)
[5]
  percentage damage caused to the plant, five point scale, SETFA: 5 (5=80-100%)
[6]
  percentage damage caused to the plant, five point scale, SOLNI: 5 (5=80-100%)
[7]
  Control of weed species after pre-emergence application, AMARE (percentage damage, five point scale): 1 (1=0-19%)
[8]
  Control of weed species after pre-emergence application, SOLNI (percentage damage, five point scale): 1 (1=0-19%)
[9]
  Control of weed species after pre-emergence application, ECHCG (percentage damage, five point scale): 0
[10]
  Control of weed species after pre-emergence application, IPOHE (percentage damage, five point scale): 1 (1=0-19%)
[11]
  Control of weed species after pre-emergence application, LOLPE (percentage damage, five point scale): 1 (1=0-19%)
[12]
  Control of weed species after pre-emergence application, SETFA (percentage damage, five point scale): 2 (2=20-39%)

## CNc1ccc(CCc2c(Cl)ccc(F)c2-c2c(O)c(C)nn(C)c2=O)cc1 [Compound A-1.034]
[1]
  percentage damage caused to the plant, five point scale, AMARE: 5 (5=80-100%)
[2]
  percentage damage caused to the plant, five point scale, ECHCG: 1 (1=0-19%)
[3]
  percentage damage caused to the plant, five point scale, IPOHE: 5 (5=80-100%)
[4]
  percentage damage caused to the plant, five point scale, LOLPE: 5 (5=80-100%)
[5]
  percentage damage caused to the plant, five point scale, SETFA: 5 (5=80-100%)
[6]
  percentage damage caused to the plant, five point scale, SOLNI: 5 (5=80-100%)
[7]
  Control of weed species after pre-emergence application, AMARE (percentage damage, five point scale): 0
[8]
  Control of weed species after pre-emergence application, SOLNI (percentage damage, five point scale): 2 (2=20-39%)
[9]
  Control of weed species after pre-emergence application, ECHCG (percentage damage, five point scale): 0
[10]
  Control of weed species after pre-emergence application, IPOHE (percentage damage, five point scale): 0
[11]
  Control of weed species after pre-emergence application, LOLPE (percentage damage, five point scale): 0
[12]
  Control of weed species after pre-emergence application, SETFA (percentage damage, five point scale): 0

## Cc1nn(C)c(=O)c(-c2c(F)ccc(Cl)c2CCc2ccc(OC(C)(C)C)cc2)c1O [Compound A-1.035]
[1]
  percentage damage caused to the plant, five point scale, AMARE: 4 (4=60-79%)
[2]
  percentage damage caused to the plant, five point scale, ECHCG: 4 (4=60-79%)
[3]
  percentage damage caused to the plant, five point scale, IPOHE: 4 (4=60-79%)
[4]
  percentage damage caused to the plant, five point scale, LOLPE: 4 (4=60-79%)
[5]
  percentage damage caused to the plant, five point scale, SETFA: 4 (4=60-79%)
[6]
  percentage damage caused to the plant, five point scale, SOLNI: 5 (5=80-100%)
[7]
  Control of weed species after pre-emergence application, AMARE (percentage damage, five point scale): 4 (4=60-79%)
[8]
  Control of weed species after pre-emergence application, SOLNI (percentage damage, five point scale): 3 (3=40-59%)
[9]
  Control of weed species after pre-emergence application, ECHCG (percentage damage, five point scale): 1 (1=0-19%)
[10]
  Control of weed species after pre-emergence application, IPOHE (percentage damage, five point scale): 1 (1=0-19%)
[11]
  Control of weed species after pre-emergence application, LOLPE (percentage damage, five point scale): 3 (3=40-59%)
[12]
  Control of weed species after pre-emergence application, SETFA (percentage damage, five point scale): 3 (3=40-59%)

## Cc1nn(C)c(=O)c(-c2c(F)ccc(Cl)c2CCc2ccc(O)cc2)c1O [Compound A-1.037]
[1]
  percentage damage caused to the plant, five point scale, AMARE: 1 (1=0-19%)
[2]
  percentage damage caused to the plant, five point scale, ECHCG: 3 (3=40-59%)
[3]
  percentage damage caused to the plant, five point scale, IPOHE: 5 (5=80-100%)
[4]
  percentage damage caused to the plant, five point scale, LOLPE: 1 (1=0-19%)
[5]
  percentage damage caused to the plant, five point scale, SETFA: 5 (5=80-100%)
[6]
  percentage damage caused to the plant, five point scale, SOLNI: 5 (5=80-100%)
[7]
  Control of weed species after pre-emergence application, AMARE (percentage damage, five point scale): 1 (1=0-19%)
[8]
  Control of weed species after pre-emergence application, SOLNI (percentage damage, five point scale): 2 (2=20-39%)
[9]
  Control of weed species after pre-emergence application, ECHCG (percentage damage, five point scale): 2 (2=20-39%)
[10]
  Control of weed species after pre-emergence application, IPOHE (percentage damage, five point scale): 0
[11]
  Control of weed species after pre-emergence application, LOLPE (percentage damage, five point scale): 0
[12]
  Control of weed species after pre-emergence application, SETFA (percentage damage, five point scale): 0
